Source: patent US12240844B2 (Voronoi, Inc., priority 2019, dated 2025)

Assays:
SHP-77 = SHP-77 cancer cell proliferation inhibition (Cell Titer-Glo); format: cell-based; conditions: Homo sapiens, SHP77, SHP-77 small cell lung cancer cell line, 72 hours
How it was run: (§1)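 GI50 comes from CellTiter-Glo luminescence, read 10 min after reagent addition at RT, following 72 h compound treatment. Eleven concentrations were used (⅓ steps, highest 10 μM final) on 2000 cells/well. MDA-MB-231 and MDA-MB-468 were grown in DMEM, SHP-77 in RPMI.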

[1] = target: T1, LRRK2, LRRK2 (G2019S), DYRK1, CLK1 and TTK kinases (Homo sapiens, UniProt Q5S007); assay: Enzyme IC50 by Kinase HotSpot service (Reaction Biology Corporation), values marked with *; format: biochemical; conditions: LRRK2, ATP 10 uM
T1 construct: LRRK2 IC50 (marked with *); other: LRRK2; Kinase HotSpot service (Reaction Biology), ATP 10 uM
T1 sequence (Q5S007 whole entry G2019S): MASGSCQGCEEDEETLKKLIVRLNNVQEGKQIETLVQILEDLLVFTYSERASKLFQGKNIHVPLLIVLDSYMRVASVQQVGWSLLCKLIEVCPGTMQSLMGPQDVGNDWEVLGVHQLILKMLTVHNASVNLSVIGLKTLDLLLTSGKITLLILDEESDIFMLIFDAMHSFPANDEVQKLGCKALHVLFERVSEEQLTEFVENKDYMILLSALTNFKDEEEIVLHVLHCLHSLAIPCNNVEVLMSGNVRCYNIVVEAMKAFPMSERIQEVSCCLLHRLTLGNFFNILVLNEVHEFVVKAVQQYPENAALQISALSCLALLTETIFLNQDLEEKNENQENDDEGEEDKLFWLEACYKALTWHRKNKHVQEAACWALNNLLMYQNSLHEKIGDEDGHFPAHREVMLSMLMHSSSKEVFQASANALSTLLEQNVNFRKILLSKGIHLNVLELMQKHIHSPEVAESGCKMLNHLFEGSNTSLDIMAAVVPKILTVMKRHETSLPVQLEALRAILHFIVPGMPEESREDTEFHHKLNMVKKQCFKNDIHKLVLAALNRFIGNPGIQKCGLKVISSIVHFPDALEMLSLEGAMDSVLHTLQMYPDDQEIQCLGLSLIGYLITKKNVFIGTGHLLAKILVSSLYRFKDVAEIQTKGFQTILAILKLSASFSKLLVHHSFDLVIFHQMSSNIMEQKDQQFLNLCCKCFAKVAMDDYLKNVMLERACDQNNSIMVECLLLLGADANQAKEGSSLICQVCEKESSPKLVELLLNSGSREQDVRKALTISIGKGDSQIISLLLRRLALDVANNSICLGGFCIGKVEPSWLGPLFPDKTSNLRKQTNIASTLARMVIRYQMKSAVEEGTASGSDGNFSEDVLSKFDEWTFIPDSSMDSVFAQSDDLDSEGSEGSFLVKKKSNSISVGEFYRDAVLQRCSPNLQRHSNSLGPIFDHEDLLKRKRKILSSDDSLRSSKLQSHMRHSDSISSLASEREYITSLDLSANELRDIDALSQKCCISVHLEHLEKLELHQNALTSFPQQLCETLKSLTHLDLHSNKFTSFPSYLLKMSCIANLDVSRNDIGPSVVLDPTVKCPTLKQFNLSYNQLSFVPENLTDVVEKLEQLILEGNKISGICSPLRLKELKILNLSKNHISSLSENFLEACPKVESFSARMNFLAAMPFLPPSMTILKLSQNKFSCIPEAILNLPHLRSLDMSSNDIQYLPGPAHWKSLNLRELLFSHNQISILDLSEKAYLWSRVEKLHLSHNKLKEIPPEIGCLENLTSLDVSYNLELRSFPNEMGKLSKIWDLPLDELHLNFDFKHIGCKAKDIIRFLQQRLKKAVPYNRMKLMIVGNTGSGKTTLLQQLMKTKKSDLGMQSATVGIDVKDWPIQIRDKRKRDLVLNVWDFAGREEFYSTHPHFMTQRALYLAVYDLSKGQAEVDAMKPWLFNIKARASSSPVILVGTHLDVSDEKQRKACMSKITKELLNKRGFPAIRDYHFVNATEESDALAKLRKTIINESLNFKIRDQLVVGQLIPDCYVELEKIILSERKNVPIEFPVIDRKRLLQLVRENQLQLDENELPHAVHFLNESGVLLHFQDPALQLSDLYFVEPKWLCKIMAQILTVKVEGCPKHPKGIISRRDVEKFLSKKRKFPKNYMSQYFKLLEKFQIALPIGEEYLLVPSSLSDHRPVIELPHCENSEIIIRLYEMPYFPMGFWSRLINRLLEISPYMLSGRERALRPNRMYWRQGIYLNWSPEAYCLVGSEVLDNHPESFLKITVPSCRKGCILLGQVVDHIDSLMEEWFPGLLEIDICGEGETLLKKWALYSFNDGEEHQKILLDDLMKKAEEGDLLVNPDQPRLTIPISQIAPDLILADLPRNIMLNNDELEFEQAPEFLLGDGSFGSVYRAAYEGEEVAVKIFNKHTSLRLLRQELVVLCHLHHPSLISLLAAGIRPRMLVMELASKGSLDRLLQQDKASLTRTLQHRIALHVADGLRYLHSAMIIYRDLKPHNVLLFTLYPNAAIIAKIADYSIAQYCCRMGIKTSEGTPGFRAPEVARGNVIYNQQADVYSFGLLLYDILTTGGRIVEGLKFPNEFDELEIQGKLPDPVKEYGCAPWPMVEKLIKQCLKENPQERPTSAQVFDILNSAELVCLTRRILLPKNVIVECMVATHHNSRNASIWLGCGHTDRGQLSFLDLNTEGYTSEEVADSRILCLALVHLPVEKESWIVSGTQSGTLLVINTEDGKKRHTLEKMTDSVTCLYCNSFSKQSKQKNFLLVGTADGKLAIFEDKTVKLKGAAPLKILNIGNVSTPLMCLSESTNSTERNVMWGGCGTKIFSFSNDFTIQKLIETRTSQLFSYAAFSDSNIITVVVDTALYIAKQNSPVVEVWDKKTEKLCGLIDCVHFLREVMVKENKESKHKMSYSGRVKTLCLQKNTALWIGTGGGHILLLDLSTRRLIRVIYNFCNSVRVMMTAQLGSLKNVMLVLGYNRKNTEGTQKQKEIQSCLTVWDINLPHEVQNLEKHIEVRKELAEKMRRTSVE
How it was run: (§2)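 Radiometric-service kinase assays (Reaction Biology HotSpot protocol) run at 10 uM ATP under uniform conditions. Compounds tested as 3-fold dilution series from a top concentration of […] to give IC50.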

[2] = target: T2, LRRK2, LRRK2 (G2019S), DYRK1, CLK1 and TTK kinases (Homo sapiens, UniProt P49759); assay: as above; format: biochemical; conditions: CLK1, ATP 10 uM
T2 construct: CLK1 IC50 (marked with *); other: CLK1; Kinase HotSpot service (Reaction Biology), ATP 10 uM
T2 sequence (P49759 whole entry, stated change not applied): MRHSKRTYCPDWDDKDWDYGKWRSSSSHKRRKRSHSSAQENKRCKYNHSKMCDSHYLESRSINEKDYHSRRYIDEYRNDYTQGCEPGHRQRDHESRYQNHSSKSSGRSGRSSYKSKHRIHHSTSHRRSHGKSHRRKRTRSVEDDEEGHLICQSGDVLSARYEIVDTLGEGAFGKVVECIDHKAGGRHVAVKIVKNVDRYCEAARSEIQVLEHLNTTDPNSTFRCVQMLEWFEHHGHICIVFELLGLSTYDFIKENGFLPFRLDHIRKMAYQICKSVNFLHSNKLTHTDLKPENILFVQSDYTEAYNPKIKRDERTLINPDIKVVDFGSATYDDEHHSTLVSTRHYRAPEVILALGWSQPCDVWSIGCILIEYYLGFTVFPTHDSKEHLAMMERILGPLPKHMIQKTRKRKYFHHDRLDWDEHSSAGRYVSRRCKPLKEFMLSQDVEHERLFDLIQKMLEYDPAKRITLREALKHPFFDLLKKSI
How it was run: as §2

[3] = target: T3, LRRK2, LRRK2 (G2019S), DYRK1, CLK1 and TTK kinases (Homo sapiens, UniProt Q5S007, G2019S); assay: as above; format: biochemical; conditions: LRRK2 (G2019S), ATP 10 uM
T3 construct: other: LRRK2 (G2019S); Kinase HotSpot service (Reaction Biology), ATP 10 uM
T3 sequence (Q5S007 whole entry G2019S): as the sequence (Q5S007 whole entry G2019S) above
How it was run: as §2

[4] = target: T4, LRRK2, LRRK2 (G2019S), DYRK1, CLK1 and TTK kinases (Homo sapiens, UniProt Q13627); assay: as above; format: biochemical; conditions: DYRK1, ATP 10 uM
T4 construct: other: DYRK1; Kinase HotSpot service (Reaction Biology), ATP 10 uM
How it was run: as §2

TTK = target: T5, TTK (Homo sapiens, UniProt P33981); assay: TTK enzyme inhibition, ADP-Glo kinase assay; format: biochemical; set-up: purchased Signalchem T20-10G; conditions: ATP 5 μM
T5 sequence (P33981 1-857): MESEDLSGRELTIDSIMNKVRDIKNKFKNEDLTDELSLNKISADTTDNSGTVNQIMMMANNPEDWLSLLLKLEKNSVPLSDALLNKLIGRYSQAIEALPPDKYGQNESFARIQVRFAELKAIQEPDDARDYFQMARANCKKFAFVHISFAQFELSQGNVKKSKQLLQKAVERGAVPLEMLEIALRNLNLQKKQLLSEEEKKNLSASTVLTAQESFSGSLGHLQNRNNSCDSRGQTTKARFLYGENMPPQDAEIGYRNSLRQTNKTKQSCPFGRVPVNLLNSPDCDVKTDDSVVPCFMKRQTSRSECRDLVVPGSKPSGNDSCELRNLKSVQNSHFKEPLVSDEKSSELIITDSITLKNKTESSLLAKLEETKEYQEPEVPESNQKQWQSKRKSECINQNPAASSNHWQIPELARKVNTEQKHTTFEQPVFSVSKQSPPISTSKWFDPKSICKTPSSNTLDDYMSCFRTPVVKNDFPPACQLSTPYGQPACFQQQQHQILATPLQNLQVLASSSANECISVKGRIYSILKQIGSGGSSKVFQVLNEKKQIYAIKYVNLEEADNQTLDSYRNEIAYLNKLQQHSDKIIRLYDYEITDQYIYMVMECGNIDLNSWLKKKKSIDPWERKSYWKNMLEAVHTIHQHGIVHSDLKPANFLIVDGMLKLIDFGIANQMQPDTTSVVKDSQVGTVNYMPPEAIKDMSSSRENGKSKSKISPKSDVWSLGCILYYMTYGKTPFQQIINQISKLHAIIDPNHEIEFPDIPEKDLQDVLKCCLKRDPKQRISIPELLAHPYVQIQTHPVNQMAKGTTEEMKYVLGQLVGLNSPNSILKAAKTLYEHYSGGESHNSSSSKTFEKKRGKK
Method: In order to evaluate the inhibitory activity of the compounds according to the present invention on LRRK2, LRRK2 (G2019S), DYRK1, CLK1 and TTK kinases, the following experiment was performed.
Example compounds were reacted with the purified human TTK (Signalchem #T20-10G) enzyme to evaluate the enzyme inhibitory ability as follows. The reaction buffer was used as the composition of 40 mM Tris-HCl pH7.4, 20 mM MgCl2, 0.1 mg/ml BSA (5× kinase buffer, Signalchem #K03-09) and 50 μM DTT (Signalchem #D86-09B), and the reaction of all test materials was performed on the reaction buffer. The compound was diluted with 10 mM DMSO stock in […] by a serial dilution method, and the enzyme activity was measured at the final compound concentrations of 1, 0.333333, 0.111111, 0.037037, 0.012346, 0.004115, 0.001372, 0.000457, 0.000152, 0.000051 and 0.000017 μM. In the test, the human TTK (7.5 ng) enzyme was reacted with the purified ATP (5 μM, Promega #V6930) and an MBP enzyme substrate (0.2 μg, Signalchem M42-51N) at 25° C. for 4 hours, and then the enzyme activity was identified using the in vitro ADP-Glo™ kinase assay (Promega #V6930). The enzyme activity reaction liquid, an ADP-Glo reaction liquid and an enzyme potency detection solution were reacted in a ratio of 2:2:1, and the degree of inhibition of enzyme activity was measured by luminescence. The degree of inhibition of enzyme activity according to the treatment concentrations of the respective compounds was calculated based on the luminescence degree of the enzyme activity of a solvent control group that was not treated with the compound, where the concentration of each compound to inhibit enzyme activity inhibition by 50% was determined as an IC50 (nM) value and obtained using Prism (Version 8.2, GraphPad) software.
In the table below, the following designations were used for the evaluation of enzyme inhibitory ability.

MDA-MB-231 cell line = assay: MDA-MB-231 cancer cell proliferation inhibition (Cell Titer-Glo); format: cell-based; conditions: Homo sapiens, MDA-MB-231 triple-negative breast cancer cell line, 72 hours
How it was run: as §1

human DYRK1A and Tau = assay: Tau phosphorylation inhibition, ClariCELL Kinase Cell-Based Assay (Carnabio)
How it was run: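 HEK293 cells transiently expressing human DYRK1A and Tau were exposed to compound, then lysed. Released Tau was captured on plate and its phosphorylation quantified by ELISA with a phospho-Tau-specific antibody.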

GI50 (SHP-77): 301 to 1000 nM
IC50 [1]: < 100 nM
IC50 [2]: < 100 nM
IC50 [3]: < 100 nM
IC50 [4]: < 100 nM
IC50 (TTK): < 100 nM
GI50 (MDA-MB-231 cell line): 301 to 1000 nM
SMILES: COc1cc(S(=O)(=O)N2CCC(N3CCOCC3)CC2)ccc1Nc1cc(C2CC2)c2c(C(F)(F)F)c[nH]c2n1 [Example 223, 4-cyclopropyl-N-(2-methoxy-4-((4-morpholinopiperidin-1-yl)sulfonyl)phenyl)-3-(trifluoromethyl)-1H-pyrrolo[2,3-b]pyridin-6-amine]
inhibition at 0.25 µM (human DYRK1A and Tau; 0.25 uM): 4.6%
inhibition at 0.5 µM (human DYRK1A and Tau; 0.5 uM): 12.9%
inhibition at 1 µM (human DYRK1A and Tau; 1 uM): 29%
